Assay results taken from patent publication US6194434A, “Cycloalkylaminomethylpyrrolidine derivatives” (Daiichi Pharmaceutical Co., Ltd., priority 1996, dated 2001).
In brackets after ≈: the same amount, converted by molar mass. Like-named read-outs stand apart in the source and are kept apart here.

What was measured:
Test in all cases: Antimicrobial activity (MIC), standard method of the Japan Chemotherapeutic Society
Assay type in all cases: cell-based
[1] = test system: S. flexneli, 2A 5503
Excerpt: (§1) The antimicrobial activity of the compounds obtained in Examples 1 to 3 was examined in accordance with the standard method specified by the Japan Chemotherapeutic Society.

[2] = test system: S. aureus, 209P
Excerpt: as §1

[3] = test system: Ps. aeruginosa, 32121
Excerpt: as §1

[4] = test system: Ser. marcescens, 10100
Excerpt: as §1

[5] = test system: Ps. aeruginosa, 32104
Excerpt: as §1

[6] = test system: Pr. vulgaris, 08601
Excerpt: as §1

[7] = test system: Ps. maltophilia, IID-1275
Excerpt: as §1

[8] = test system: Str. pyrogenes, G-36
Excerpt: as §1

[9] = test system: S. aureaus, 870307
Excerpt: as §1

[10] = test system: Pr. mirabilis, IFO-3849
Excerpt: as §1

[11] = test system: E. coli, NIHJ
Excerpt: as §1

[12] = test system: S. epidermidis, 56500
Excerpt: as §1

[13] = test system: Str. faecalis, ATCC-19433
Excerpt: as §1

[14] = Pseudomonas aeruginosa, read-out: MIC

Row | Structure (SMILES) | MIC ([1]; S. flexneli, 2A 5503) [µg/mL] | MIC [2] [µg/mL] | MIC [3] [µg/mL] | MIC [4] [µg/mL] | MIC [5] [µg/mL] | MIC [6] [µg/mL] | MIC [7] [µg/mL] | MIC [8] [µg/mL] | MIC [9] [µg/mL] | MIC [10] [µg/mL] | MIC [11] [µg/mL] | MIC [12] [µg/mL] | MIC [13] [µg/mL] | other results
1 | Cc1c(N2CC[C@H](CNC3CC3)C2)c(F)cc2c(=O)c(C(=O)O)cn([C@@H]3C[C@@H]3F)c12 [Example 1, 7-[3-(R)-Cyclopropylaminomethyl-1-pyrrolidinyl]-6-fluoro-1-[(1R,2S)-2-fluorocyclopropyl]-1,4-dihydro-8-methyl-4-oxoquinoline-3-carboxylic Acid] | – | – | – | – | – | – | – | – | – | – | – | – | – | MIC [1]: 0.006 µg/mL (≈ 0.0144 µM); MIC ([2]; Staphylococcus aureus, read-out: MIC): ≤ 0.003 µg/mL; MIC [3, 14]: 0.1 µg/mL (≈ 0.24 µM); MIC ([4]; Serratia marcescens, read-out: MIC): 0.1 µg/mL (≈ 0.24 µM); MIC [5, 14]: 0.2 µg/mL (≈ 0.479 µM); MIC ([6]; Proteus vulgaris, read-out: MIC): 0.006 µg/mL (≈ 0.0144 µM); MIC ([7]; Stenotrophomonas maltophilia, IID1275, read-out: MIC): 0.05 µg/mL (≈ 0.12 µM); MIC ([8]; read-out: MIC): 0.013 µg/mL (≈ 0.0311 µM); MIC ([9]; read-out: MIC): 0.025 µg/mL (≈ 0.0599 µM); MIC ([10]; Proteus mirabilis, IFO3849, read-out: MIC): 0.025 µg/mL (≈ 0.0599 µM); MIC ([11]; Escherichia coli, read-out: MIC): ≤ 0.003 µg/mL; MIC ([12]; Staphylococcus epidermidis, read-out: MIC): 0.013 µg/mL (≈ 0.0311 µM); MIC ([13]; Enterococcus faecalis, ATCC19433, read-out: MIC): 0.025 µg/mL (≈ 0.0599 µM)
2 | COc1c(N2CC[C@H](CNC3CC3)C2)c(F)c(N)c2c(=O)c(C(=O)O)cn([C@@H]3C[C@@H]3F)c12 [Example 2, 5-Amino-7-[3-(R)-(N-cyclopropylaminomethyl)-1-pyrrolidinyl]-6-fluoro-1-[(1R,2S)-2-fluorocyclopropyl]-1,4-dihydro-8-methoxy-4-oxocquinoline-3-carboxylic Acid] | 0.013 (≈ 0.029 µM) | ≤ 0.003 | 0.78 (≈ 1.74 µM) | 0.39 (≈ 0.87 µM) | 0.78 (≈ 1.74 µM) | 0.10 (≈ 0.223 µM) | 0.20 (≈ 0.446 µM) | 0.025 (≈ 0.0557 µM) | 0.05 (≈ 0.111 µM) | 0.20 (≈ 0.446 µM) | 0.006 (≈ 0.0134 µM) | 0.013 (≈ 0.029 µM) | 0.10 (≈ 0.223 µM) | –
3 | Cc1c(N2CC[C@H](CNC3CC3)C2)c(F)c(N)c2c(=O)c(C(=O)O)cn([C@@H]3C[C@@H]3F)c12.Cl [Example 3, 5-Amino-7-[(3R)-N-cyclopropylaminomethyl-1-pyrrolidinyl]-6-fluoro-1-[(1R,2S)-2-fluorocyclopropyl]-1,4-dihydro-8-methyl-4-oxoquinoline-3-carboxylic Acid Hydrochloride] | 0.006 | ≤ 0.003 | 0.20 | 0.20 | 0.39 | 0.05 | 0.10 | 0.013 | 0.025 | 0.10 | 0.006 | 0.006 | 0.05 | –
